# From patent US20250282810A1, “Chemical Synthesis Method and Application of V. Cholerae Serotype O100 O-Antigen Oligosaccharides” (priority 2024, published 2025)
# Tested on: rabbit serum IgG antibodies
# Test: Glycan microarray screening of synthetic oligosaccharides with rabbit serum
# Format: binding
# Details: oligosaccharides printed at 0.1 mM and 0.5 mM, LPS at 1 mg/mL and 5 mg/mL, rabbit serum 1:200, cy3 goat anti-rabbit IgG 1:400
# Procedure: . Then, a microarray spotter was used for printing distribution grids shown in FIG. 9B onto the area of a microarray (9 mm long*9 mm wide), and incubation was performed overnight at room temperature and 65% humidity to covalently bind oligosaccharide fragments to the microarray. After incubation, a mixed solution (pH=9) of […] ethanolamine and […] sodium phosphate was used for processing at 50° C. for 1 h, and then, ultrapure water was used for washing.
# The glycan microarray was blocked with a PBS solution containing 3% BSA at room temperature for 1 h. The glycan microarray was washed once with a PBS solution containing 0.1% Tween 20 (PBST solution), washed twice with a PBS solution, and spin-dried, and the glycan microarray was loaded into a 16-well incubator (ProPlate). 120 microliters of rabbit serum sample diluted in a ratio of 1:200 in a PBS solution containing 1% BSA was added to each well, and incubated overnight in a moist chamber at 4° C. in the dark to allow rabbit serum IgG antibodies identifying the synthetic oligosaccharide fragments to bind to the synthetic oligosaccharides on the glycan microarray, and the sample was removed and washed three times with 200 microliters of PBST solution to remove unbound serum IgG antibodies. […]
substance,measurement,value
D-FucNAc [synthetic sugar 6*],binding ability to IgG antibodies (fluorescence signals),did not bind to antibodies
